From patent US11224223B2, “Feeding deterrence of pests such as Hemiptera, Lepidoptera and Coleoptera” (BEDOUKIAN RESEARCH, INC., priority 2012, dated 2022)

How the values were obtained:
Type in all cases: in vivo
[1] = tested on: Codling Moth larvae; experiment: Repellency as feeding deterrence and mortality in Codling Moth larvae on treated media; settings: compound at 3.5% in a 57% Ethanol:43% water solution; for Repellency at 24 hours: first instar larva, control 8%
Procedure: Another test was designed to measure the repellency as feeding deterrence in Codling Moth larvae. The treatment was applied to the surface of a proprietary laboratory media in a tray with wells for each compound. The media was allowed to dry for 30-60 minutes so that larvae were not exposed to it as a liquid. One first instar codling moth larva was then placed on the treated media. The cover film was placed on the tray to prevent escapes. Ten additional replicates treated with a 57% ethanol solution were prepared to serve as controls. […] After the 24 hour reading, the larvae were extracted from the media to record any mortality.
Mortality observations were also made for the above protocol. The control was the 57% ethanol:43% water solution.

[2] = tested on: granary weevils; experiment: Granary weevil test on treated wheat kernels; settings: 5% in isopropyl alcohol, 3 week period
Procedure: Ten replicates of 30 kernels of wheat were immersed into the test compound and allowed to dry for 24 hours. The grains were then transferred to a test container, and 10 granary weevils were released. Test containers were secured and left for a 3 week period. At the end of this time, the wheat grains were examined for developing larvae and damage by larvae. […] Ten additional replicates treated with isopropyl alcohol were prepared to serve as controls.

[3] = tested on: psyllids; experiment: Psyllid repellency on potato choice assays; settings: 3% compound; potato plants; 100 psyllids per cage; control 50/50
Source text: Psyllid Repellency on Potato Choice Assays
Potato plants are sprayed with either a 3% solution of repellent chemical in a 5%:95% ETOH:Water or only 5%:95% ETOH:Water as a control. Two plants are placed in a screen cage, either a treatment vs control tree or a control vs control tree, 100 psyllids are released into each cage. The number of psyllids choosing each leaf is counted for both choice tests. The number of psyllids choosing each treatment is compared to the control to determine if there is a repellent effect.

[4] = tested on: Euschistus heros-Neotropical Brown Stink Bugs; experiment: Stink bug feeding damage on soybean pods; settings: 3% compound, soybean plants at R6 stage, 48 hours
Procedure: To compare the feeding/resting preference of stink bug adults for different plant parts, 10 pots with soybean plants at the R6 (pod-filling) stage of development are used. 5 pots of soybeans are sprayed with 3% of treatment in a 2% Triton X:water solution and 5 pots of soybean are treated with 2% Triton X:water solution as controls. Thirty stink bugs are placed individually in each cage and allowed to feed for 48 hours. Insects are removed and plant parts are collected for visual analysis of damage. Feeding damage on the pods is counted for both treatments. The selective antifeeding rate (%) formula is [(C−T)/(C+T)]×100, and the non-selective antifeeding rate (%) formula is [(C−T)/C)]×100, where C and T are the numbers of feeding damages on the control and treated plant pods, respectively.

[5] = tested on: Leptinotarsa decemlineata-Colorado Potatoe Beetles; experiment: Choice feeding assay on potato leaf disks; settings: 3% compound, larvae, 24 h
Procedure: For choice feeding assays, 3% alcohol solutions of the tested compounds are prepared. Disks (4.0 cm in diameter) are cut from potato leaves and are dipped in the test solutions or alcohol alone as a control. After the complete evaporation of the solvent, the disks are offered to 10 larvae. Control and treated disks are placed at alternate corners in Petri dishes (150 by 20 mm) lined with moistened filter paper (choice test). All dishes are placed in an incubator. Four replicates and 40 larva are used for each chemical. In each replicate, the insects are allowed to feed ad libitum for 24 h at 24 C under a 16:8 (L:D) photoperiod. After 24 h, the remaining uneaten area of each potato leaf disk is measured using a scanner and software. The selective antifeeding rate (%) formula is [(C−T)/(C+T)]×100, and the non-selective antifeeding rate (%) formula is [(C−T)/C)]×100, where C and T are the areas consumed by the control and treated leaf disks, respectively.

[6] = tested on: Dermestid spp.; experiment: Dermestid beetle feeding damage on silk fabric; settings: 3% compound; undyed silk disks; late instar larvae; 1 week
Procedure: Dermestid Beetle Feeding Damage on Silk Fabric
For feeding assays, 3% alcohol solutions of the tested compounds are prepared. Disks (4.0 cm in diameter) of undyed silk fabric are dipped in the test solutions or alcohol alone as a control. After the complete evaporation of the solvent, the disks are offered to 10 late instar larvae. All dishes are placed in an incubator. Four replicates are used for each chemical. After 1 week, the remaining uneaten area of each silk disk is measured using a scanner and software. The selective antifeeding rate (%) formula is [(C−T)/(C+T)]×100, and the non-selective antifeeding rate (%) formula is [(C−T)/C)]×100, where C and T are the areas consumed by the control and treated silk disks, respectively.

[7] = tested on: Tineola spp.; experiment: Clothes moth feeding damage on silk fabric, choice test; settings: 3% compound; silk disks; late instar larvae; 24 hours; control 50/50
Procedure: For feeding assays, 3% alcohol solutions of the tested compounds are prepared. Disks (2.0 cm in diameter) of undyed silk fabric are dipped in the test solutions or alcohol alone as a control. After the complete evaporation of the solvent, the disks are presented in a choice test to 10 late instar Tineola spp. larvae. All dishes are placed in an incubator in the dark. Four replicates are used for each chemical. After 24 hours, the number of individuals choosing to feed on each disk are counted.

[8] = tested on: Plodia interpunctella; experiment: Feeding repellent assay for Indian meal moth larva on treated rice; settings: 10% compound in a 5% Ethanol:95% water solution, third instar larvae, 1 week
Procedure: (§1) Feeding Repellent Assay for Indian Meal Moth Larva One gram of rice is weighed and treated with 2% by weight of each test chemical or ethanol as a control for each treatment and replicate. The grains are allowed to dry and then weighed again. Treated or control rice grains are placed in a petri dish. Third instar larvae are starved for 8 h and gently introduced into the center of each compartment. 20 larva are screened per treatment, and each experiment is repeated three times. The weight of rice grains is measured again after 1 week. The selective antifeeding rate (%) formula is [(C−T)/(C+T)]×100, and the non-selective antifeeding rate (%) formula is [(C−T)/C)]×100, where C and T are the areas consumed by the control and treated leaf disks, respectively.

[9] = tested on: Sitostroga cerealella; experiment: Feeding repellent assay for Angoumois larva on treated rice; settings: 10% compound in a 5% Ethanol:95% water solution, third instar larvae, 1 week
Procedure: Feeding Repellent Assay for Angoumois Larva
as §1, with “One” for “Feeding Repellent Assay for Indian Meal Moth Larva One”

Row | Structure (SMILES) | Increased Mortality over Control Mortality at 24 hours [1] [%] | Repellency at 24 hours [1] [%] | Increased Repellency vs. Control Repellency [2] [%] | Number of Psyllids Choosing each Treatment: Treated [3] | Number of Psyllids Choosing each Treatment: Untreated [3] | % Antifeedent Activity [4] [%] | % Repellency [5] [%] | % Repellency [6] [%] | Individuals choosing to feed on each disk: Treated [7] | Individuals choosing to feed on each disk: Untreated [7] | % Antifeedent Activity [8] [%] | % Antifeedent Activity [9] [%]
1 | CC/C(C)=C/CC/C(C)=C/CC1CCCC1=O (stereo not drawn) [Methyl Apritone] | 95 | 100 | 11 | 30 | 70 | 60 | 15 | 15 | 20 | 80 | 70 | 70
2 | CCCCCC1C(=O)CCC1CC(=O)OCCC (stereo not drawn) [Propyl Dihydrojasmonate] | 18 | 59 | 8 | 30 | 70 | 100 | 15 | 15 | 20 | 80 | 60 | 60
